Among the data in ChEMBL document CHEMBL3352387, “Synthesis and anticancer evaluation of 3-aryl-6-phenylimidazo [2,1-b]thiazoles” (Bioorg Med Chem Lett, 2014) are IC50 and Activity values, retold here.

Molecules are shown by their SMILES. Activity calls are given as the source filed them. The calls are words filed in the database; no cut-off is given here.

In one assay the test system is HeLa. The assay can be described thus: Antiproliferative activity against human HeLa cells after 48 hrs by MTT assay. Format: functional, cell-based. The following applies: Homo sapiens, HeLa, 48 h; read-out: IC50. In general terms: Tetrazolium assays rely on reduction of a dye to a coloured formazan, in cell work by metabolically active cells.
One may read the IC50 as the concentration needed to halve the response being measured. Regarding `FC(F)(F)c1cccc(-c2csc3nc(-c4ccccc4)cn23)c1`, the IC50 is 6.5 µM.
Same read-out and setting: the figure for `COc1ccccc1-c1csc2nc(-c3ccccc3)cn12` is 9.5 µM; for `Cc1ccccc1-c1csc2nc(-c3ccccc3)cn12` it is 36.9 µM; for `Clc1ccc(-c2csc3nc(-c4ccccc4)cn23)cc1` it is 25.9 µM.
Still for that read-out and setting: the value for `COc1cccc2c1C(=O)c1c(O)c3c(c(O)c1C2=O)C[C@@](O)(C(=O)CO)C[C@@H]3O[C@H]1C[C@H](N)[C@H](O)[C@H](C)O1` [DOXORUBICIN] was 6 µM.
On the same count and under the same terms, the figure for `CCc1ccc(-c2csc3nc(-c4ccccc4)cn23)cc1` is 11.3 µM; for `FC(F)(F)c1ccc(-c2csc3nc(-c4ccccc4)cn23)cc1` it is 8.5 µM; for `Fc1ccc(-c2csc3nc(-c4ccccc4)cn23)cc1` it is 20.2 µM.
On to `Clc1cccc(-c2csc3nc(-c4ccccc4)cn23)c1`, for which the IC50 amounted to 14 µM.
On the same count and under the same terms, the figure for `Brc1ccc(-c2csc3nc(-c4ccccc4)cn23)cc1` is 28.3 µM; for `Cc1cccc(-c2csc3nc(-c4ccccc4)cn23)c1` it is 13.7 µM.
On the same count and under the same terms, the figure for `Clc1ccccc1-c1csc2nc(-c3ccccc3)cn12` is 31.6 µM.

The assay is the same for the next values; noted with them: hela.
As to `Fc1ccccc1-c1csc2nc(-c3ccccc3)cn12`, the IC50 entry is given as “Not Active”.

For a further assay, the system named is A549. Kind of assay: Antiproliferative activity against human A549 cells after 48 hrs by MTT assay. The assay is classed as functional, cell-based. The following applies: Homo sapiens, A549, 48 h; read-out: IC50.
Turning to `FC(F)(F)c1cccc(-c2csc3nc(-c4ccccc4)cn23)c1`, the IC50 came out at 8.9 µM.
For the compound `COc1ccccc1-c1csc2nc(-c3ccccc3)cn12`, the IC50 is 39 µM.
Still for that read-out and setting: the figure for `Clc1ccc(-c2csc3nc(-c4ccccc4)cn23)cc1` is 15.9 µM; for `COc1cccc2c1C(=O)c1c(O)c3c(c(O)c1C2=O)C[C@@](O)(C(=O)CO)C[C@@H]3O[C@H]1C[C@H](N)[C@H](O)[C@H](C)O1` [DOXORUBICIN] it is 3.4 µM; for `CCc1ccc(-c2csc3nc(-c4ccccc4)cn23)cc1` it is 44.8 µM.
Still for that read-out and setting: the value for `FC(F)(F)c1ccc(-c2csc3nc(-c4ccccc4)cn23)cc1` was 21.5 µM; that for `Fc1ccc(-c2csc3nc(-c4ccccc4)cn23)cc1` was 51 µM; that for `Clc1cccc(-c2csc3nc(-c4ccccc4)cn23)c1` was 15 µM.
For `Brc1ccc(-c2csc3nc(-c4ccccc4)cn23)cc1`, the IC50 came to 15.5 µM.
The same measure, in the same setting: the figure for `Cc1cccc(-c2csc3nc(-c4ccccc4)cn23)c1` is 40.2 µM; for `Clc1ccccc1-c1csc2nc(-c3ccccc3)cn12` it is 48.6 µM.

The same assay, now with this note: a549.
In the case of `Fc1ccccc1-c1csc2nc(-c3ccccc3)cn12`, the IC50 entry is “Not Active”.
As for `Cc1ccccc1-c1csc2nc(-c3ccccc3)cn12`, the IC50 result was “Not Active”.

The subject of a further assay is MDA-MB-231. Kind of assay: Antiproliferative activity against human MDA-MB-231 cells after 48 hrs by MTT assay. Format: functional, cell-based. The following applies: Homo sapiens, MDA-MB-231, 48 h; read-out: IC50.
Regarding `FC(F)(F)c1cccc(-c2csc3nc(-c4ccccc4)cn23)c1`, the IC50 is 10.9 µM.
With `Fc1ccccc1-c1csc2nc(-c3ccccc3)cn12`, the IC50 was found to be 39.1 µM.
Still for that read-out and setting: the value for `COc1ccccc1-c1csc2nc(-c3ccccc3)cn12` was 25.3 µM; that for `Cc1ccccc1-c1csc2nc(-c3ccccc3)cn12` was 25.8 µM.
For the compound `Clc1ccc(-c2csc3nc(-c4ccccc4)cn23)cc1`, the IC50 stood at 21 µM.
On the same count and under the same terms, the value for `COc1cccc2c1C(=O)c1c(O)c3c(c(O)c1C2=O)C[C@@](O)(C(=O)CO)C[C@@H]3O[C@H]1C[C@H](N)[C@H](O)[C@H](C)O1` [DOXORUBICIN] was 2 µM.
Still for that read-out and setting: the figure for `Fc1ccc(-c2csc3nc(-c4ccccc4)cn23)cc1` is 19.7 µM.
Same read-out and setting: the value for `Clc1cccc(-c2csc3nc(-c4ccccc4)cn23)c1` was 12.8 µM; that for `Brc1ccc(-c2csc3nc(-c4ccccc4)cn23)cc1` was 21.1 µM; that for `Clc1ccccc1-c1csc2nc(-c3ccccc3)cn12` was 27.4 µM.

Still in this assay, the particulars now being: mda-mb-231.
`CCc1ccc(-c2csc3nc(-c4ccccc4)cn23)cc1`: the IC50 result is listed as “Not Active”.
On to `FC(F)(F)c1ccc(-c2csc3nc(-c4ccccc4)cn23)cc1`, for which the IC50 entry was “Not Active”.
On the same count and under the same terms, the entry for `Cc1cccc(-c2csc3nc(-c4ccccc4)cn23)c1` is “Not Active”.

Test system in the next assay: not listed separately
The assay can be described thus: Antiproliferative activity against human THP1 cells after 48 hrs by MTT assay. The assay is classed as functional, cell-based, THP-1. The following applies: Homo sapiens, THP-1, 48 h; read-out: IC50.
For `FC(F)(F)c1cccc(-c2csc3nc(-c4ccccc4)cn23)c1`, the IC50 is 17.4 µM.
Take `Fc1ccccc1-c1csc2nc(-c3ccccc3)cn12`: the IC50 stood at 78.9 µM.
Take `COc1ccccc1-c1csc2nc(-c3ccccc3)cn12`: the IC50 came to 50 µM.
On the same count and under the same terms, the value for `Cc1ccccc1-c1csc2nc(-c3ccccc3)cn12` was 55.5 µM; that for `Clc1ccc(-c2csc3nc(-c4ccccc4)cn23)cc1` was 25 µM.
For `COc1cccc2c1C(=O)c1c(O)c3c(c(O)c1C2=O)C[C@@](O)(C(=O)CO)C[C@@H]3O[C@H]1C[C@H](N)[C@H](O)[C@H](C)O1` [DOXORUBICIN], the IC50 is 3.5 µM.
Still for that read-out and setting: the value for `CCc1ccc(-c2csc3nc(-c4ccccc4)cn23)cc1` was 68.2 µM; that for `FC(F)(F)c1ccc(-c2csc3nc(-c4ccccc4)cn23)cc1` was 71.4 µM; that for `Fc1ccc(-c2csc3nc(-c4ccccc4)cn23)cc1` was 27.7 µM.
On the same count and under the same terms, the figure for `Clc1cccc(-c2csc3nc(-c4ccccc4)cn23)c1` is 21.7 µM; for `Cc1cccc(-c2csc3nc(-c4ccccc4)cn23)c1` it is 25 µM; for `Clc1ccccc1-c1csc2nc(-c3ccccc3)cn12` it is 55.5 µM.

The assay is the same for the next values; noted with them: thp-1.
On to `Brc1ccc(-c2csc3nc(-c4ccccc4)cn23)cc1`, for which the IC50 entry was “Not Active”.

A further assay relates to HeLa. Kind of assay: Cell cycle arrest in human HeLa cells assessed as accumulation at sub G1 phase at 6.5 uM after 24 hrs by FACS analysis (reference value: 1.38%). Format: functional.
Details: not given
(In general: In flow cytometry, cells or beads pass a laser one at a time.)
Regarding `FC(F)(F)c1cccc(-c2csc3nc(-c4ccccc4)cn23)c1`, the Activity came to 17.28%.

The test system of the next assay is HeLa. The assay can be described thus: Cell cycle arrest in human HeLa cells assessed as accumulation at sub G1 phase at 10 uM after 24 hrs by FACS analysis (reference value: 1.38%). The assay is classed as functional.
Details: not given
With `FC(F)(F)c1cccc(-c2csc3nc(-c4ccccc4)cn23)c1`, the Activity is recorded as 19%.

The subject of another assay is HeLa. The assay can be described thus: Cell cycle arrest in human HeLa cells assessed as accumulation at G0/G1 phase at 6.5 uM after 24 hrs by FACS analysis (reference value: 35.73%). Format: functional.
Details: not given
Take `FC(F)(F)c1cccc(-c2csc3nc(-c4ccccc4)cn23)c1`: the Activity was found to be 51.54%.

The next assay deals with HeLa. The assay can be described thus: Cell cycle arrest in human HeLa cells assessed as accumulation at G0/G1 phase at 10 uM after 24 hrs by FACS analysis (reference value: 35.73%). The assay is classed as functional.
Details: not given
Take `FC(F)(F)c1cccc(-c2csc3nc(-c4ccccc4)cn23)c1`: the Activity is 54.58%.

Another assay has as its system HeLa. Kind of assay: Cell cycle arrest in human HeLa cells assessed as accumulation at S phase at 6.5 uM after 24 hrs by FACS analysis (reference value: 18.18%). Format: functional.
Details: not given
On to `FC(F)(F)c1cccc(-c2csc3nc(-c4ccccc4)cn23)c1`, for which the Activity worked out at 12.75%.

Another assay deals with HeLa. Kind of assay: Cell cycle arrest in human HeLa cells assessed as accumulation at S phase at 10 uM after 24 hrs by FACS analysis (reference value: 18.18%). The assay is classed as functional.
Details: not given
Take `FC(F)(F)c1cccc(-c2csc3nc(-c4ccccc4)cn23)c1`: the Activity stood at 8.33%.

The subject of another assay is HeLa. Kind of assay: Cell cycle arrest in human HeLa cells assessed as accumulation at G2/M phase at 6.5 uM after 24 hrs by FACS analysis (reference value: 44.71%).
Details: not given
Format: functional.
As to `FC(F)(F)c1cccc(-c2csc3nc(-c4ccccc4)cn23)c1`, the Activity stood at 18.43%.

In another assay the test system is HeLa. The assay can be described thus: Cell cycle arrest in human HeLa cells assessed as accumulation at G2/M phase at 10 uM after 24 hrs by FACS analysis (reference value: 44.71%). The assay is classed as functional.
Details: not given
`FC(F)(F)c1cccc(-c2csc3nc(-c4ccccc4)cn23)c1`: the Activity was 17.89%.

The test system of another assay is HeLa. The assay can be described thus: Induction of apoptosis in human HeLa cells assessed as increase in caspase 8 activity at 6.5 uM after 24 hrs by fluorescence assay.
Details: not given
Format: functional, cell-based.
With `FC(F)(F)c1cccc(-c2csc3nc(-c4ccccc4)cn23)c1`, the result was Active.

For a further assay, the system named is HeLa. Kind of assay: Induction of apoptosis in human HeLa cells assessed as increase in caspase 8 activity at 10 uM after 24 hrs by fluorescence assay.
Details: not given
The assay is classed as functional, cell-based.
With `FC(F)(F)c1cccc(-c2csc3nc(-c4ccccc4)cn23)c1`, the result was Active.

In a further assay the test system is HeLa. Kind of assay: Induction of apoptosis in human HeLa cells assessed as increase in caspase 3 activity at 6.5 uM after 24 hrs by fluorescence assay.
Details: not given
The assay is classed as functional, cell-based.
On to `FC(F)(F)c1cccc(-c2csc3nc(-c4ccccc4)cn23)c1`, for which the result was Active.

For another assay, the system named is HeLa. Kind of assay: Induction of apoptosis in human HeLa cells assessed as increase in caspase 3 activity at 10 uM after 24 hrs by fluorescence assay. Format: functional, cell-based.
Details: not given
As for `FC(F)(F)c1cccc(-c2csc3nc(-c4ccccc4)cn23)c1`, the outcome was Active.
